Test results taken from ChEMBL document CHEMBL4619792, “Amidate Prodrugs of O-2-Alkylated Pyrimidine Acyclic Nucleosides Display Potent Anti-Herpesvirus Activity” (ACS Med Chem Lett, 2020).

Key:
[1] = test system: Human alphaherpesvirus 3; test: Antiviral activity against thymidine kinase deficient Varicella zoster virus 07-1 infected in human HEL cells assessed as reduction in plaque formation measured after 5 days; format: functional, organism-based; conditions: Human alphaherpesvirus 3, 07-1, HEL, 120 h
[2] = test system: Human alphaherpesvirus 3; test: Antiviral activity against thymidine kinase positive Varicella zoster virus OKA infected in human HEL cells assessed as reduction in plaque formation measured after 5 days; format: functional, organism-based; conditions: Human alphaherpesvirus 3, OKA, 120 h
[3] = test system: Cytomegalovirus; test: Antiviral activity against Cytomegalovirus Davis infected in human HEL cells assessed as reduction in virus-induced cytopathogenicity measured after 6 to 7 days; format: functional, organism-based; conditions: Human betaherpesvirus 5, Davis
[4] = test system: Cytomegalovirus; test: Antiviral activity against Cytomegalovirus AD169 infected in human HEL cells assessed as reduction in virus-induced cytopathogenicity measured after 6 to 7 days; format: functional, organism-based; conditions: Human betaherpesvirus 5, AD169, HEL
[5] = Cytotoxicity against human HEL cells assessed as minimum cytotoxic concentration for change in cellular morphology incubated for 3 days by microscopic analysis; format: cell-based
[6] = Cytotoxicity against human HEL cells assessed as reduction in cell proliferation incubated for 3 days by Coulter counter method; format: cell-based
[7] = test system: Moloney murine sarcoma virus; test: Antiviral activity against Moloney murine sarcoma virus infected in murine C3H/3T3 embryo fibroblasts assessed as inhibition of virus-induced transformation incubated for 6 days by microscopic analysis; format: functional, organism-based
[8] = test system: Human immunodeficiency virus; test: Antiviral activity against HIV infected in human CEM cells assessed as inhibition of virus induced cytopathicity incubated for 4 days by microscopic analysis; format: functional, organism-based; conditions: ccrf-cem
[9] = test system: Hepatitis B virus; test: Antiviral activity against Hepatitis B virus ayw1 infected in human HepG2.2.15 cells assessed as reduction in virus DNA replication measured after 6 days by qRT-PCR analysis; format: functional, organism-based; conditions: ayw1, HepG2 2.2.15, 144 h
[10] = Selectivity index, ratio of CC50 for human HEL cells to EC50 for antiviral activity against thymidine kinase deficient Varicella zoster virus 07-1 infected in human HEL cells; format: toxicity, cell-based; conditions: read-out: Ratio CC50/EC50
[11] = Selectivity index, ratio of CC50 for human HEL cells to EC50 for antiviral activity against Cytomegalovirus Davis infected in human HEL cells; format: toxicity, cell-based; conditions: read-out: Ratio CC50/EC50
[12] = Selectivity index, ratio of CC50 for human HEL cells to EC50 for antiviral activity against Cytomegalovirus AD169 infected in human HEL cells; format: toxicity, cell-based; conditions: read-out: Ratio CC50/EC50
[13] = Selectivity index, ratio of CC50 for human HEL cells to EC50 for antiviral activity against thymidine kinase positive Varicella zoster virus OKA infected in human HEL cells; format: toxicity, cell-based; conditions: read-out: Ratio CC50/EC50

Row | SMILES | EC50 [1] | EC50 [2] | EC50 [3] | EC50 [4] | MCC at 72 h [5] | CC50 at 72 h [6] | EC50 [7] | EC50 [8] | EC50 [9] | selectivity ratio [10] | selectivity ratio [11] | selectivity ratio [12] | selectivity ratio [13]
1 | CCCCOC(=O)[C@@H](NP(=O)(COC(C)COc1nccc(N)n1)Oc1ccccc1)C(C)C (some centres undefined) | > 100 µM | > 100 µM | > 100 µM | > 100 µM | > 100 µM |  |  |  |  |  |  |  | 
2 | CCCCCOC(=O)[C@@H](NP(=O)(CO[C@H](CF)COc1nccc(N)n1)Oc1ccccc1)C(C)C (mixture of isomers) | 35.9 µM | 38.6 µM | 7.61 µM | > 100 µM | > 100 µM |  |  |  |  |  |  |  | 
3 | CCCCCOC(=O)[C@@H](NP(=O)(CO[C@H](C)COc1ncc(F)c(N)n1)Oc1ccccc1)C(C)C (mixture of isomers) | > 100 µM | > 100 µM | > 100 µM | > 100 µM | > 100 µM |  |  |  |  |  |  |  | 
4 | Nc1ccnc(OC[C@H](CF)OCP(=O)(O)O)n1 | 25.3 µM | 3.79 µM | 0.8 µM | 2.36 µM | > 100 µM | > 100 µM |  |  |  |  |  |  | 
5 | CCCCCOC(=O)[C@@H](NP1(=O)CO[C@@H](COc2ncc(F)c(N)n2)CO1)C(C)C (mixture of isomers) | > 100 µM | > 100 µM | > 100 µM | > 100 µM | > 100 µM |  |  |  |  |  |  |  | 
6 | Cc1c(N)nc(N)nc1OCCOCP(=O)(O)O |  |  |  |  |  |  | 0.16 to 0.43 µM | 0.16 to 0.43 µM |  |  |  |  | 
7 | CCCCCOC(=O)C[C@H](NP(=O)(CO[C@H](CF)COc1nccc(N)n1)Oc1ccccc1)C(=O)OCCCCC (mixture of isomers) | 24.7 µM | 38.2 µM | 48.2 µM | 62.8 µM | > 100 µM | > 100 µM |  |  |  |  |  |  | 
8 | Nc1nc2c(ncn2COCCO)c(=O)[nH]1 [ACYCLOVIR] |  |  |  |  | > 444 µM | > 444 µM |  |  |  |  |  |  | 
9 | CCCCCOC(=O)[C@@H](NP(=O)(CO[C@H](C)COc1nccc(N)n1)Oc1ccccc1)C(C)C (mixture of isomers) | > 100 µM | > 100 µM | > 100 µM | > 100 µM | > 100 µM |  |  |  |  |  |  |  | 
10 | CCCCCOC(=O)[C@@H](NP1(=O)CO[C@H](COc2nccc(N)n2)CO1)C(C)C (mixture of isomers) | 35.7 µM | 53.6 µM | 4.76 µM | 14 µM | > 100 µM | > 100 µM |  |  |  |  |  |  | 
11 | CCCCCOC(=O)[C@@H](NP(=O)(CO[C@@H](CF)COc1ncc(F)c(N)n1)Oc1ccccc1)C(C)C (mixture of isomers) | 2.94 µM | 6.73 µM | 4.7 µM | 11.2 µM | > 100 µM | > 100 µM |  |  | 2.1 to 8.71 µM |  |  |  | 
12 | Nc1nc2c(ncn2COC(CO)CO)c(=O)[nH]1 [GANCICLOVIR] |  |  | 4.44 µM | 13 µM | > 394 µM | > 394 µM |  |  |  |  |  |  | 
13 | O=c1[nH]c(=O)n([C@H]2C[C@H](O)[C@@H](CO)O2)cc1/C=C/Br [BRIVUDINE] | 0.18 µM | 0.089 µM |  |  | > 300 µM | > 300 µM |  |  |  |  |  |  | 
14 | CCCCCOC(=O)[C@@H](NP1(=O)CO[C@@H](COc2nccc(N)n2)CO1)C(C)C (mixture of isomers) | > 100 µM | > 100 µM | > 100 µM | > 100 µM | > 100 µM |  |  |  |  |  |  |  | 
15 | CCCCCOC(=O)[C@@H](NP(=O)(CO[C@@H](C)COc1ncc(F)c(N)n1)Oc1ccccc1)C(C)C (mixture of isomers) | > 100 µM | > 100 µM | > 100 µM | > 100 µM | > 100 µM |  |  |  |  |  |  |  | 
16 | CCCCCOC(=O)[C@@H](NP(=O)(CO[C@H](CF)COc1ncc(F)c(N)n1)Oc1ccccc1)C(C)C (mixture of isomers) | > 100 µM | > 100 µM | > 100 µM | > 100 µM | > 100 µM |  |  |  |  |  |  |  | 
17 | CCCCCOC(=O)[C@@H](NP(=O)(CO[C@@H](C)COc1nccc(N)n1)Oc1ccccc1)C(C)C (mixture of isomers) | > 100 µM | > 100 µM | > 100 µM | > 100 µM | > 100 µM |  |  |  |  |  |  |  | 
18 | Nc1ccnc(OC[C@@H](CF)OCP(=O)(O)O)n1 (mixture of isomers) | > 100 µM | > 100 µM | > 100 µM | > 100 µM | > 100 µM | > 100 µM |  |  |  |  |  |  | 
19 | Nc1ccn(C[C@@H](CO)OCP(=O)(O)O)c(=O)n1 [CIDOFOVIR] |  |  | 0.94 µM | 1.74 µM | > 317 µM | > 317 µM |  |  |  |  |  |  | 
20 | CCCCCOC(=O)[C@@H](NP(=O)(CO[C@@H](CF)COc1nccc(N)n1)Oc1ccccc1)C(C)C (mixture of isomers) | 0.18 µM | 0.36 µM | 0.097 µM | 0.26 µM | > 100 µM | 79.3 µM |  |  | 2.1 to 8.71 µM | 220 to 818 | 220 to 818 | 220 to 818 | 220 to 818
21 | CCCCCOC(=O)C[C@H](NP(=O)(CO[C@@H](CF)COc1nccc(N)n1)Oc1ccccc1)C(=O)OCCCCC (mixture of isomers) | 0.098 µM | 0.36 µM | 0.094 µM | 0.54 µM | > 100 µM | 51.8 µM |  |  | 2.1 to 8.71 µM | 96 to 551 | 96 to 551 | 96 to 551 | 96 to 551
22 | CCCCCOC(=O)[C@@H](NP1(=O)CO[C@H](COc2ncc(F)c(N)n2)CO1)C(C)C (mixture of isomers) | > 100 µM | > 100 µM | > 100 µM | > 100 µM | > 100 µM |  |  |  |  |  |  |  | 
